Several values for one entry are separate records, joined by “and”; a condition that tells them apart may be missing. Equal values may be shown once. Toxic doses and inconclusive results are not listed.
System: BDF1 mice, B16 melanoma ip, median survival T/C
Experiment: NCI In Vivo Anticancer Drug Screen. Data for tumor model B16 Melanoma (intraperitoneal) in B6D2F1 (BDF1) mice
Settings: endpoint: median survival time, higher = longer survival
Method in brief: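 Compounds were tested in mice carrying transplantable tumors. Survival or tumor size was recorded, and each value is the treated-group measurement (T) divided by that of the vehicle-treated control group (C).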

[1] = dose: 100.0 mg/kg/injection, schedule: Q01DX009 (ip), vehicle: Klucel (hydroxypropylcellulose) (HPC)
[2] = dose: 200.0 mg/kg/injection, schedule: Q01DX009 (ip), vehicle: Klucel (hydroxypropylcellulose) (HPC)
[3] = dose: 100.0 mg/kg/injection, schedule: Q04DX003 (ip), vehicle: Klucel (hydroxypropylcellulose) (HPC)
[4] = dose: 200.0 mg/kg/injection, schedule: Q04DX003 (ip), vehicle: Klucel (hydroxypropylcellulose) (HPC)
[5] = dose: 400.0 mg/kg/injection, schedule: Q01DX009 (ip), vehicle: Klucel (hydroxypropylcellulose) (HPC)
[6] = dose: 400.0 mg/kg/injection, schedule: Q04DX003 (ip), vehicle: Klucel (hydroxypropylcellulose) (HPC)
[7] = dose: 50.0 mg/kg/injection, schedule: Q01DX009 (ip), vehicle: Klucel (hydroxypropylcellulose) (HPC)
[8] = dose: 50.0 mg/kg/injection, schedule: Q01DX009 (ip), vehicle: saline with Tween-80
[9] = dose: 100.0 mg/kg/injection, schedule: Q01DX009 (ip), vehicle: saline with Tween-80
[10] = dose: 12.5 mg/kg/injection, schedule: Q01DX009 (ip), vehicle: saline with Tween-80
[11] = dose: 25.0 mg/kg/injection, schedule: Q01DX009 (ip), vehicle: saline with Tween-80
[12] = dose: 200.0 mg/kg/injection, schedule: Q01DX009 (ip), vehicle: saline with Tween-80
[13] = dose: 400.0 mg/kg/injection, schedule: Q01DX009 (ip), vehicle: saline with Tween-80
[14] = dose: 6.25 mg/kg/injection, schedule: Q01DX009 (ip), vehicle: saline with Tween-80

In the case of `O=C(O)C1(C(=O)O)CCC1.[NH2-].[NH2-].[Pt+2]`, the T/C (dose: 2.0 mg/kg/injection, schedule: Q01DX009 (ip), vehicle: saline) is reported as 112 % of control, the T/C (dose: 4.0 mg/kg/injection, schedule: Q01DX009 (ip), vehicle: saline) is reported as 115 % of control and the T/C (dose: 6.25 mg/kg/injection, schedule: Q01DX009 (ip), vehicle: other) is reported as 123 % of control. For the same molecule, the T/C (dose: 8.0 mg/kg/injection, schedule: Q01DX009 (ip), vehicle: saline) was 150 % of control, the T/C (dose: 12.5 mg/kg/injection, schedule: Q01DX009 (ip), vehicle: other) was 176 % of control and the T/C (dose: 16.0 mg/kg/injection, schedule: Q01DX009 (ip), vehicle: saline) was 176 % of control. The T/C (dose: 25.0 mg/kg/injection, schedule: Q01DX009 (ip), vehicle: other) was 160 % of control and 164 % of control and the T/C (dose: 32.0 mg/kg/injection, schedule: Q01DX009 (ip), vehicle: saline) was 176 % of control.

With `CC(C)(C)C1CCNC(=O)CC1` (configuration not stated) the T/C (dose: 5.0 mg/kg/injection, schedule: Q01DX009 (ip), vehicle: Klucel (hydroxypropylcellulose) (HPC)) was 88 % of control, the T/C (dose: 10.0 mg/kg/injection, schedule: Q01DX009 (ip), vehicle: Klucel (hydroxypropylcellulose) (HPC)) was 94 % of control and the T/C (dose: 20.0 mg/kg/injection, schedule: Q01DX009 (ip), vehicle: Klucel (hydroxypropylcellulose) (HPC)) was 97 % of control.

In the case of `CC(C)c1ccc(NC(=O)Nc2cccc3ccccc23)cc1`, the T/C [1] is reported as 100 % of control and the T/C [2] is reported as 97 % of control.

With `CNc1ccc(C(=O)O)cc1I` the T/C [1] was 105 % of control, the T/C [3] was 100 % of control and the T/C [2] was 120 % of control. The T/C [4] was 104 % of control, the T/C [5] was 91 % of control and the T/C [6] was 100 % of control.

With `CN(C)C1CCCCC1` the T/C (dose: 12.5 mg/kg/injection, schedule: Q01DX009 (ip), vehicle: Klucel (hydroxypropylcellulose) (HPC)) was 91 % of control, the T/C (dose: 12.5 mg/kg/injection, schedule: Q04DX003 (ip), vehicle: Klucel (hydroxypropylcellulose) (HPC)) was 116 % of control and the T/C (dose: 25.0 mg/kg/injection, schedule: Q04DX003 (ip), vehicle: Klucel (hydroxypropylcellulose) (HPC)) was 100 % of control. For the same molecule, the T/C [7] was 100 % of control and the T/C (dose: 50.0 mg/kg/injection, schedule: Q04DX003 (ip), vehicle: Klucel (hydroxypropylcellulose) (HPC)) was 91 % of control.

`COc1cc2c3cc1Oc1c(O)c(OC)cc4c1[C@H](Cc1ccc(cc1)Oc1cc(ccc1O)C[C@H]3N(C)CC2)N(C)CC4` was tested, and the T/C (dose: 10.0 mg/kg/injection, schedule: Q01DX009 (ip), vehicle: water) was 108 % of control, the T/C (dose: 20.0 mg/kg/injection, schedule: Q01DX009 (ip), vehicle: water) was 114 % of control and the T/C (dose: 40.0 mg/kg/injection, schedule: Q01DX009 (ip), vehicle: water) was 102 % of control and 113 % of control. For the same molecule, the T/C [8] was 118 % of control, the T/C (dose: 75.0 mg/kg/injection, schedule: Q01DX009 (ip), vehicle: saline with Tween-80) was 112 % of control and the T/C (dose: 80.0 mg/kg/injection, schedule: Q01DX009 (ip), vehicle: water) was 88 % of control and 114 % of control. The T/C [9] was 118 % of control and the T/C (dose: 150.0 mg/kg/injection, schedule: Q01DX009 (ip), vehicle: saline with Tween-80) was 119 % of control.

`CCOC12c3ccccc3N(S(C)(=O)=O)C(C)C1C2(Br)Br` (configuration not stated) was tested, and the T/C (dose: 75.0 mg/kg/injection, schedule: Q04DX003 (ip), vehicle: Klucel (hydroxypropylcellulose) (HPC)) was 104 % of control, the T/C (dose: 150.0 mg/kg/injection, schedule: Q04DX003 (ip), vehicle: Klucel (hydroxypropylcellulose) (HPC)) was 87 % of control and the T/C (dose: 300.0 mg/kg/injection, schedule: Q04DX003 (ip), vehicle: Klucel (hydroxypropylcellulose) (HPC)) was 107 % of control.

In the case of `CCC(C(C)N1CC(=O)NC(=O)C1)N1CC(=O)NC(=O)C1` (configuration not stated), the T/C (dose: 0.06 mg/kg/injection, schedule: Q01DX009 (ip), vehicle: Klucel (hydroxypropylcellulose) (HPC)) is reported as 107 % of control, the T/C (dose: 0.13 mg/kg/injection, schedule: Q01DX009 (ip), vehicle: Klucel (hydroxypropylcellulose) (HPC)) is reported as 108 % of control and the T/C (dose: 0.25 mg/kg/injection, schedule: Q01DX009 (ip), vehicle: Klucel (hydroxypropylcellulose) (HPC)) is reported as 109 % of control and 124 % of control. The T/C (dose: 0.25 mg/kg/injection, schedule: Q04DX003 (ip), vehicle: Klucel (hydroxypropylcellulose) (HPC)) was 105 % of control, the T/C (dose: 0.5 mg/kg/injection, schedule: Q01DX009 (ip), vehicle: Klucel (hydroxypropylcellulose) (HPC)) was 120 % of control and the T/C (dose: 0.5 mg/kg/injection, schedule: Q04DX003 (ip), vehicle: Klucel (hydroxypropylcellulose) (HPC)) was 114 % of control. For the same molecule, the T/C (dose: 1.0 mg/kg/injection, schedule: Q04DX003 (ip), vehicle: Klucel (hydroxypropylcellulose) (HPC)) was 115 % of control and 121 % of control and the T/C (dose: 8.0 mg/kg/injection, schedule: Q04DX003 (ip), vehicle: Klucel (hydroxypropylcellulose) (HPC)) was 156 % of control.

In the case of `Cc1cc(=O)[nH]c(N/N=C/c2cc(Cl)ccc2O)n1`, the T/C [10] is reported as 93 % of control, the T/C [11] is reported as 90 % of control and the T/C [8] is reported as 86 % of control.

With `CCOC(=O)C1C(=O)CC(=O)C(C(=O)OCC)C1c1ccc(O)cc1` (configuration not stated) the T/C [1] was 100 % of control, the T/C [2] was 93 % of control and the T/C [5] was 103 % of control.

In the case of `C(/C=C/C=C/N1CCCCC1)=[N+]1CCCCC1`, the T/C (dose: 0.13 mg/kg/injection, schedule: Q01DX009 (ip), vehicle: saline) is reported as 96 % of control, the T/C (dose: 0.25 mg/kg/injection, schedule: Q01DX009 (ip), vehicle: saline) is reported as 107 % of control and the T/C (dose: 0.5 mg/kg/injection, schedule: Q01DX009 (ip), vehicle: saline) is reported as 101 % of control. For the same molecule, the T/C (dose: 1.0 mg/kg/injection, schedule: Q01DX009 (ip), vehicle: saline) was 105 % of control.

In the case of `Cc1ccc(S(=O)(=O)Oc2ccc(-c3ccc(Br)cc3)cc2)cc1`, the T/C [8] is reported as 96 % of control, the T/C [9] is reported as 93 % of control and the T/C [12] is reported as 86 % of control. For the same molecule, the T/C [13] was 91 % of control.

In the case of `CCCCC(CCCC)c1ccccn1`, the T/C [14] is reported as 104 % of control, the T/C [10] is reported as 108 % of control and the T/C [11] is reported as 102 % of control.

With `O=C(O)C1CCCCC1C(=O)Nc1ccc(Cl)cc1` (configuration not stated) the T/C [7] was 114 % of control, the T/C [1] was 105 % of control and the T/C [2] was 107 % of control.

`CC(C)=CCOc1ccc2ccc(=O)oc2c1` was tested, and the T/C (dose: 5.0 mg/kg/injection, schedule: Q01DX009 (ip), vehicle: saline with Tween-80) was 108 % of control, the T/C (dose: 10.0 mg/kg/injection, schedule: Q01DX009 (ip), vehicle: saline with Tween-80) was 105 % of control and the T/C (dose: 20.0 mg/kg/injection, schedule: Q01DX009 (ip), vehicle: saline with Tween-80) was 99 % of control.

`CCCCOC(=O)C(C)OC(=O)Nc1cccc(Cl)c1` (configuration not stated) was tested, and the T/C [9] was 88 % of control, the T/C [12] was 100 % of control and the T/C [13] was 92 % of control.

With `CC(C)OC(=O)Nc1ccc(-c2ccc(NC(=O)OC(C)C)cc2)cc1` the T/C [1] was 109 % of control, the T/C [3] was 109 % of control and the T/C [2] was 118 % of control. For the same molecule, the T/C [4] was 90 % of control, the T/C [5] was 109 % of control and the T/C [6] was 92 % of control.

`O=C(c1cccc(C(=O)n2c3c(c4ccccc42)CCCC3)c1)n1c2c(c3ccccc31)CCCC2` was tested, and the T/C [14] was 94 % of control, the T/C [10] was 102 % of control and the T/C [11] was 100 % of control.

`CC(=O)OC1C2CCC(C2)C1C` (configuration not stated) was tested, and the T/C (dose: 100.0 mg/kg/injection, schedule: Q04DX003 (ip), vehicle: saline with Tween-80) was 105 % of control, the T/C (dose: 200.0 mg/kg/injection, schedule: Q04DX003 (ip), vehicle: saline with Tween-80) was 100 % of control and the T/C (dose: 400.0 mg/kg/injection, schedule: Q04DX003 (ip), vehicle: saline with Tween-80) was 97 % of control.

With `O=C(Nc1ccccc1)N(Cc1ccccc1)c1ccccc1` the T/C (dose: 50.0 mg/kg/injection, schedule: Q04DX009 (ip), vehicle: Klucel (hydroxypropylcellulose) (HPC)) was 104 % of control, the T/C (dose: 100.0 mg/kg/injection, schedule: Q04DX009 (ip), vehicle: Klucel (hydroxypropylcellulose) (HPC)) was 104 % of control and the T/C (dose: 200.0 mg/kg/injection, schedule: Q04DX003 (ip), vehicle: carboxymethylcellulose (CMC)) was 105 % of control. The T/C (dose: 200.0 mg/kg/injection, schedule: Q04DX009 (ip), vehicle: Klucel (hydroxypropylcellulose) (HPC)) was 93 % of control.

With `CC(=O)[O][Pb]([CH2]CC(C)C)([CH2]CC(C)C)[CH2]CC(C)C` the T/C (dose: 0.75 mg/kg/injection, schedule: Q01DX009 (ip), vehicle: Klucel (hydroxypropylcellulose) (HPC)) was 100 % of control and the T/C (dose: 1.5 mg/kg/injection, schedule: Q01DX009 (ip), vehicle: Klucel (hydroxypropylcellulose) (HPC)) was 86 % of control.
